Where “and” joins values, the source holds several entries; their conditions need not be identical. Identical values can stand only once. Numbers after ± are expanded uncertainties.
Settings: for mass density: 100 kPa, Vibrating tube method; for mass density / viscosity: Liquid; for surface tension liquid-gas / viscosity: Surface laser light scattering (SLLS)

Question: Which results are given for `CCCCCCCC(C)C` [2-methylnonane]?
Answer: mass density (283.15 K): 735.134 ± 0.9 kg/m3; mass density (288.15 K): 731.326 ± 0.9 kg/m3; mass density (293.15 K): 727.469 ± 0.89 kg/m3; surface tension liquid-gas (298.15 K): 21.45 ± 0.3 mN/m; mass density (298.15 K): 723.54 ± 2.2 kg/m3 and 723.632 ± 0.89 kg/m3; viscosity (298.15 K): 0.8268 ± 0.028 mPa·s; mass density (303.15 K): 719.96 ± 0.88 kg/m3; mass density (308.15 K): 716.109 ± 0.88 kg/m3; mass density (313.15 K): 712.275 ± 0.87 kg/m3; mass density (318.15 K): 708.49 ± 0.87 kg/m3; surface tension liquid-gas (323.15 K): 19.65 ± 0.21 mN/m; mass density (323.15 K): 704.14 ± 2.2 kg/m3 and 704.628 ± 0.86 kg/m3; viscosity (323.15 K): 0.6035 ± 0.023 mPa·s; mass density (328.15 K): 700.722 ± 0.86 kg/m3; mass density (333.15 K): 696.794 ± 0.85 kg/m3; mass density (338.15 K): 692.852 ± 0.85 kg/m3; mass density (343.15 K): 688.883 ± 0.84 kg/m3; surface tension liquid-gas (348.15 K): 17.76 ± 0.19 mN/m; mass density (348.15 K): 684.896 ± 0.84 kg/m3 and 684.45 ± 2.1 kg/m3; viscosity (348.15 K): 0.4629 ± 0.019 mPa·s; mass density (353.15 K): 680.89 ± 0.83 kg/m3; mass density (358.15 K): 676.827 ± 0.83 kg/m3; mass density (363.15 K): 672.811 ± 0.83 kg/m3; surface tension liquid-gas (373.15 K): 15.75 ± 0.19 mN/m; mass density (373.15 K): 664.34 ± 2 kg/m3; viscosity (373.15 K): 0.3623 ± 0.017 mPa·s; surface tension liquid-gas (398.15 K): 13.64 ± 0.19 mN/m; mass density (398.15 K): 643.46 ± 2 kg/m3; viscosity (398.15 K): 0.2897 ± 0.015 mPa·s; surface tension liquid-gas (423.15 K): 11.72 ± 0.21 mN/m; mass density (423.15 K): 621.59 ± 1.9 kg/m3; viscosity (423.15 K): 0.2365 ± 0.013 mPa·s; surface tension liquid-gas (448.15 K): 9.9 ± 0.17 mN/m; viscosity (448.15 K): 0.1989 ± 0.013 mPa·s

Question: For `CCCCCC(C)CCC` (stereo not drawn) [4-methylnonane], which mass density (283.15 K) is on record?
Answer: The mass density was 739.362 ± 0.91 kg/m3.

Question: What about the mass density (288.15 K) of the same compound?
Answer: Its mass density is 735.555 ± 0.9 kg/m3.

Question: And the mass density (293.15 K)?
Answer: Its mass density is 731.743 ± 0.9 kg/m3.

Question: And the surface tension liquid-gas (298.15 K)?
Answer: The surface tension liquid-gas was 21.67 ± 0.28 mN/m.

Question: What about the mass density (298.15 K) of the same compound?
Answer: The mass density was 728.35 ± 2.2 kg/m3 and 727.929 ± 0.89 kg/m3.

Question: What about the viscosity (298.15 K) of the same compound?
Answer: The viscosity was 0.7638 ± 0.027 mPa·s.

Question: What about the mass density (303.15 K) of the same compound?
Answer: Its mass density is 724.098 ± 0.89 kg/m3.

Question: And the mass density (308.15 K)?
Answer: Its mass density is 720.253 ± 0.88 kg/m3.

Question: What about the mass density (313.15 K) of the same compound?
Answer: The mass density was 716.396 ± 0.88 kg/m3.

Question: And the mass density (318.15 K)?
Answer: Its mass density is 712.527 ± 0.87 kg/m3.

Question: What about the surface tension liquid-gas (323.15 K) of the same compound?
Answer: Its surface tension liquid-gas is 20.06 ± 0.26 mN/m.

Question: And the mass density (323.15 K)?
Answer: Its mass density is 708.82 ± 2.2 kg/m3 and 708.634 ± 0.87 kg/m3.

Question: What about the viscosity (323.15 K) of the same compound?
Answer: Its viscosity is 0.5533 ± 0.021 mPa·s.

Question: What about the mass density (328.15 K) of the same compound?
Answer: Its mass density is 704.729 ± 0.86 kg/m3.

Question: What about the mass density (333.15 K) of the same compound?
Answer: The mass density was 700.808 ± 0.86 kg/m3.

Question: What about the mass density (338.15 K) of the same compound?
Answer: Its mass density is 696.873 ± 0.85 kg/m3.

Question: And the mass density (343.15 K)?
Answer: Its mass density is 692.918 ± 0.85 kg/m3.

Question: What about the surface tension liquid-gas (348.15 K) of the same compound?
Answer: The surface tension liquid-gas was 17.93 ± 0.19 mN/m.

Question: And the mass density (348.15 K)?
Answer: The mass density was 688.94 ± 0.84 kg/m3 and 689 ± 2.1 kg/m3.

Question: What about the viscosity (348.15 K) of the same compound?
Answer: Its viscosity is 0.4161 ± 0.018 mPa·s.

Question: And the mass density (353.15 K)?
Answer: The mass density was 684.943 ± 0.84 kg/m3.

Question: What about the mass density (358.15 K) of the same compound?
Answer: The mass density was 680.922 ± 0.83 kg/m3.

Question: What about the mass density (363.15 K) of the same compound?
Answer: Its mass density is 676.877 ± 0.83 kg/m3.

Question: And the surface tension liquid-gas (373.15 K)?
Answer: The surface tension liquid-gas was 15.92 ± 0.2 mN/m.

Question: And the mass density (373.15 K)?
Answer: Its mass density is 668.81 ± 2.1 kg/m3.

Question: What about the viscosity (373.15 K) of the same compound?
Answer: The viscosity was 0.3279 ± 0.016 mPa·s.

Question: What about the surface tension liquid-gas (398.15 K) of the same compound?
Answer: The surface tension liquid-gas was 13.77 ± 0.27 mN/m.

Question: What about the mass density (398.15 K) of the same compound?
Answer: Its mass density is 647.86 ± 2 kg/m3.

Question: And the viscosity (398.15 K)?
Answer: Its viscosity is 0.2644 ± 0.014 mPa·s.

Question: And the surface tension liquid-gas (423.15 K)?
Answer: Its surface tension liquid-gas is 11.89 ± 0.13 mN/m.

Question: What about the mass density (423.15 K) of the same compound?
Answer: Its mass density is 626 ± 1.9 kg/m3.

Question: And the viscosity (423.15 K)?
Answer: Its viscosity is 0.2168 ± 0.013 mPa·s.

Question: And the surface tension liquid-gas (448.15 K)?
Answer: The surface tension liquid-gas was 9.95 ± 0.14 mN/m.

Question: And the viscosity (448.15 K)?
Answer: Its viscosity is 0.1801 ± 0.012 mPa·s.

Source: the NIST ThermoML archive (doi:10.1021/acs.jced.8b00163)
